According to patent publication US8173360B2, “Cell death inhibitor” (Takeda Pharmaceutical Company Limited, priority 2002, dated 2012):

Assays:
[1] = tested on: Human normal articular chondrocytes; test: Inhibitory activity against cell death of human articular chondrocytes induced by NO (MTT); type: cell-based; settings: for Cell Death Inhibition Rate: 1.5 mM sodium nitroprusside 5 hours, mean ±SD
Protocol: Human normal articular chondrocytes (Clonetics, Inc.) were proliferated in a growth medium for articular chondrocytes (CGM, Clonetics, Inc.) in monolayer culture. Then, the cells were suspended in 1.2% alginate-containing 155 mM NaCl solution in a density of 2.0×10^6 cells/ml, and beads having a 2 mm diameter were prepared using a syringe with a 22 gauge needle. The beads were incubated in a differentiation medium for articular chondrocytes (CDM, Clonetics, Inc.) charged in a 96-well round-bottomed plate (1 bead/well, manufactured by FALCON) for further 7 days. The medium was replaced by α-modified minimum essential medium containing Compound 1 (0.1 μM or 1 μM) and 10% fetal cow serum, followed by incubation for 48 hours and then for 5 hours in the co-presence of 1.5 mM sodium nitroprusside (NO generator, manufactured by Sigma). As control drugs, caspase 3 inhibitor (Z-DEVD-FMK (SEQ ID NO: 5), 100 μM, manufactured by R & D Systems, Inc.) and caspase 9 inhibitor (Z-LEHD-FMK (SEQ ID NO: 6), 100 μM, manufactured by R & D Systems, Inc.) were similarly monitored for their activities. After completion of the experiment, alginate was removed and the cell survival rate was determined by the MTT technique.
In the table, the numerical values indicate mean values (±SD) of the cell death inhibition rates as converted from the measurement data by the MTT technique. The cell survival rate after the addition of 1.5 mM sodium nitroprusside (without addition of either Compound 1 or control drug) was 31.9%.

[2] = tested on: heme oxygenase-1; test: Heme oxygenase-1 production-increasing activity (western blotting); type: cell-based, rat; settings: for Increasing Rate of Production (heme oxygenase-1): 24 hours, without compound = 1
Protocol: The plate was washed 3 times with Medium 199 medium to remove serum. Compound I was added to the plate, followed by incubation for 24 hours at 37° C. and 5% CO2. After completion of the incubation, the cardiomyocytes were washed once with PBS(−), and 100 μl of cell lysis buffer [10 mM Tris(hydroxymethyl)aminomethane, pH 7.4, 150 mM NaCl, 1 mM EDTA.2Na, 1 mM ethylene glycol-bis(β-aminoethylether]-N,N,N′,N′-tetraacetic acid, 0.5 mM (p-aminophenyl)methanesulfonyl fluoride hydrochloride, 200 μM sodium β-glycerophosphate n-hydrate, 20 mM NaF, 2 mM sodium diphosphate decahydrate, 10 μg/ml aprotinin, 10 μg/ml leupeptin, 1% Triton X-100, 0.5% Nonidet P40, 0.1% sodium dodesyl sulfate) was added thereto. After the cell debris was scraped from the plate using a cell scraper, the cell lysis buffer was recovered. The recovered cell lysis buffer was mixed with a sample buffer (Tris-SDS-ME Sample Buffer; manufactured by Daiichi Pure Chemicals Co., Ltd.) in an equal volume. The mixture was heat-treated at 95° C. for 5 minutes, followed by SDS polyacrylamide electrophoresis using Multigel (manufactured by Daiichi Pure Chemicals Co., Ltd.). Next, nitrocellulose membrane (Hybond-ECL; manufactured by Amersham Pharmacia Biotech) soaked in a blotting buffer [0.1 M Tris(hydroxymethyl)aminomethane, 0.192 M glycine, 20% ethanol] for at least 10 minutes, blotting filter paper, dialysis membrane and gel were set on Horize-Blot (manufactured by ATTO, Co.) and treated with 100 mA/gel (64 cm^2) for an hour to adsorb the protein in the gel onto the nitrocellulose membrane. Thereafter, the nitrocellulose membrane was soaked in a blocking buffer [TTBS buffer (20 mM Tris-HCl, pH 7.6, 0.137 M NaCl, 0.1% Tween-20) containing 5% skimmed milk powders] and stirred at room temperature for an hour for blocking. […] After completion of the reaction, the membrane was washed 3 times with TTBS buffer and the amount of protein was determined using a western blotting detection reagent (ECL+Plus; manufactured by Amersham) and Hyperfilm ECL (manufactured by Amersham). […]

## O=c1nc(-c2ccccn2)sc2ccccc12 [Compound 1, 2-(2-Pyridyl)-4H-1,3-benzothiazin-4-one]
[1]; 0.1 μM
  Cell Death Inhibition Rate: 44.7 ± 0.9
[1]; 1 μM
  Cell Death Inhibition Rate: 57.6 ± 7.0
[1]; statement in words
  inhibitory activity against cell death of human articular chondrocytes induced by NO: has the inhibitory activity against the cell death of human articular chondrocytes induced by NO
[2]; 0.04 μM
  Increasing Rate of Production (heme oxygenase-1): 1.6
[2]; 0.4 μM
  Increasing Rate of Production (heme oxygenase-1): 2.5
[2]; statement in words
  production amount of heme oxygenase-1: increases the production amount of heme oxygenase-1
